In patent publication US20220259235A1, “EGFR Inhibitor, Composition, and Preparation Method Therefor” (BETTA PHARMACEUTICALS CO., LTD, priority 2019, published 2022) one finds IC50 and GI50 data, which are given here for eleven molecules.

Test [1] concerns the target EGFR Δ19del/T790M/C797S (Homo sapiens, UniProt P00533, T790M/C797S, form not given). As to the kind of experiment: EGFR Δ19del/T790M/C797S kinase test (mobility shift, Caliper EZ Reader). Type of test: biochemical. Conditions: kinase enzymatic activity. Here is the method: Mobility variation analysis was performed to determine the affinity of the compound for EGFRΔ19del/T790M/C797S. The enzymatic reaction scheme is as follows:
1. Prepare 1* kinase buffer as follows:
2. Preparation of compound concentration gradient: The test compound was tested with an initial concentration of 3000 nM or 100 nM, diluted in a 384 source plate to a 100% DMSO solution with 100-fold final concentration, and the compound is 3-fold diluted with Precision to 10 concentrations. A dispenser Echo 550 was used to transfer 250 nL 100-fold final concentration of the compound to the target plate OptiPlate-384F.
3. Prepare 2.5-fold final concentration of kinase solution with 1×Kinase buffer;
4. Add 10 μL of 2.5-fold final concentration of kinase solution to the compound well and the positive control well; add 10 μL of 1×Kinase buffer to the negative control well.
5. Centrifuge at 1000 rpm for 30 seconds, shake the reaction plate for well mixation, and then incubate at room temperature for 10 minutes.
6. Prepare a mixture of ATP and Kinase substrate at 5/3-fold final concentration with 1×Kinase buffer.
7. Add 15 μL mixture of 5/3-fold final concentration of ATP and substrate to start reaction.
8. Centrifuge the 384-well plate at 1000 rpm for 30 seconds, shake it well and then incubate it at room temperature for corresponding time.
9. Add 30 μL of stop detection solution to stop the kinase reaction, centrifuge at 1000 rpm for 30 seconds, shake it well.
10. Read conversion rate with Caliper EZ Reader.
% Inhibition=((Conversion%_max−Conversion%_sample)/(Conversion%_max−Conversion%_min))*100
Wherein: Conversion%_sample is the sample conversion rate reading; Conversion%_min: Mean value of negative control wells, representing the conversion rate reading of wells without enzymatic activity; Conversion%_max: Mean value of positive control wells, representing the conversion rate reading of wells without compound inhibition.
The dose-effect curve was fitted with concentration log value as X-axis and percentage inhibition rate as Y-axis. Log (inhibitor) vs. Response—Variable Slope of GraphPad Prism 5 was used to fit the dose-effect curve to obtain IC50 value of enzymatic activity for each compound.
The calculation formula is as Y=Bottom (Top−Bottom)/(1+10^((LogIC50−X)*HillSlope)).
As illustrated in examples, IC50 value is within the following range for the compound of the present invention: “A” represents “IC50≤1nM”; “B” represents “1 nM<IC50≤100nM”.

The target of test [2] is Ba/F3-L858R/T790M/C797S (Homo sapiens, UniProt P00533, T790M/C797S/L858R, cells depend on it). As to the kind of experiment: Ba/F3-L858R/T790M/C797S cell proliferation assay (CellTiter Glo, 72 h). The test is classed as cell-based. The note with it: CTG, class symbols, read-out: BaF3 L858R/T790M/C797S IC50. Here is the method:
(§1) Cell line: Ba/F3 cells with stable overexpression of Δ19del/T790M/C797S or L858R/T790M/C797S mutant genes, named Ba/F3-Δ19del/T790M/C797S and Ba/F3-L858R/T790M/C797S, and A431 EGFR wild-type cell line.
(§2) RPMI 1640 and 10% FBS and 1% PS; _EM, 10% PBS and 1% PS
(§3) a) Dilute the test compound (20 mM stock solution) to 10 mM with 100% DMSO as the starting concentration, and then serially dilute 3 times with a “9+0” concentration in 96-well dilution plate (Cat #P-05525, Labcyte);
(§4) b) Dilute compound solution thereof to 1:100 in medium to prepare 10-fold working solution;
(§5) a) Centrifuge the growth cells in logarithmic phase at 1000 rpm for 5 minutes, resuspend the cells in culture medium, and then count the cells;
(§6) b) Inoculate the cells into a 96-well cell culture plate with a density of 2000 cells/well;
(§7) a) The compound prepared in Step 2 was added to a cell plate with 15 μL per well at final concentrations of 1000, 333, 111.1, 37, 12.3, 4.1, 1.4, 0.5, 0.2, and 0 nM. The final concentration of DMSO was 0.1%. The blank control well is with medium (0.1% DMSO).
(§8) b) Incubate cells in an incubatorother 72 hours;
(§9) a) Take out the 96-well cell culture plate and add 50 μl CTG reagent (CellTiter Glo kit, promega, Cat #G7573);
(§10) b) Shake the plate for 2 minutes and let cool at room temperature for 10 minutes,
(§11) c) Read luminous signal value with Perkin Elmer reader.
(§12) Analysis of Experimental Data
(§13) The data were analyzed by GraphPad Prism 6.0 software to obtain the fitting curve of compound activity.
(§14) Fining compound IC50 from nonlinear regression equation:
(§15) Y=Min+(Max−Min)/(1+10^((LogIC50−X)*slope));
(§16) X: Logarithm of compound concentration; Y: luminous signal
(§17) As illustrated in examples, IC50 value is within the following range for the compound of the present invention: “A” represents “IC50≤50 nM”; “B” represents “50 nM<IC50<100 nM”.

Test [3] concerns the target Ba/F3-Δ19del/T790M/C797S (Homo sapiens, UniProt P00533, T790M/C797S, cells depend on it, form not given). Kind of test: Ba/F3-Δ19del/T790M/C797S cell proliferation assay (CellTiter Glo, 72 h). The test is classed as cell-based. The note with it: CTG, class symbols, read-out: BaF3 Δ19del/T790M/C797S IC50. The method, then:
as §1, §2, §3, §4, §5, §6, §7, §8, §9, §10, §11, §12, §13, §14, §15, §16, §17

Some results are limits rather than exact numbers.

Sequence of Ba/F3-L858R/T790M/C797S (P00533 whole entry T790M/C797S/L858R): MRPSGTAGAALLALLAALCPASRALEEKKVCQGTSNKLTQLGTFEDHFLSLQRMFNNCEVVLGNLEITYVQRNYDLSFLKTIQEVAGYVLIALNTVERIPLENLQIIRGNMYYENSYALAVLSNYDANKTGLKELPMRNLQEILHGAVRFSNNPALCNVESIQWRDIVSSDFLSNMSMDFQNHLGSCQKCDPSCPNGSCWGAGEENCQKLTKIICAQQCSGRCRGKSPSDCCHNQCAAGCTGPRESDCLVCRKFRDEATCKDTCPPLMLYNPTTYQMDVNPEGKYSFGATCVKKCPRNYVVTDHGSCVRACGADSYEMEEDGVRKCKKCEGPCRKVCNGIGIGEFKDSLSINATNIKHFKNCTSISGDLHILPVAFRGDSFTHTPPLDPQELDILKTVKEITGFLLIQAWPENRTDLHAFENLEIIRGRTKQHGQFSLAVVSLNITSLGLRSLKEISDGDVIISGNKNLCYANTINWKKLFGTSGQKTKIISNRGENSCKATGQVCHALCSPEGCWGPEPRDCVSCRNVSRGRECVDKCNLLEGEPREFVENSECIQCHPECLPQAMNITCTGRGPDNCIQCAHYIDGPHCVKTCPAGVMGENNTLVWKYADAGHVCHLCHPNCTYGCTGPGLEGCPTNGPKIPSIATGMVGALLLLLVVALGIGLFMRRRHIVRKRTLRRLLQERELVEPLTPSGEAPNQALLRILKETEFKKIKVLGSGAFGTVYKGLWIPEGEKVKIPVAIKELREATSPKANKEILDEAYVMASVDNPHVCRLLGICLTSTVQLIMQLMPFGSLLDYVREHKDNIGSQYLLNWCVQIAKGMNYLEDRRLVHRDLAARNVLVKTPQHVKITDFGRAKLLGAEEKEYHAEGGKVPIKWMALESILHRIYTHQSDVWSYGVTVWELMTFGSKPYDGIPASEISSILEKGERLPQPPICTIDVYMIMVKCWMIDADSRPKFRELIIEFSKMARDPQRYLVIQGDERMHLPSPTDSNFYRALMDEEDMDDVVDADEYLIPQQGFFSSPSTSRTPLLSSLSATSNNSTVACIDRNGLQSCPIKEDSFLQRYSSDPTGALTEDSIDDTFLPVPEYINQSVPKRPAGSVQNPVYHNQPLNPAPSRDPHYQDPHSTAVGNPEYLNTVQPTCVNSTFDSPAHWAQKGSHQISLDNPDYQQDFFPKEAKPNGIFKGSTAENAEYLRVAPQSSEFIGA
Sequence of Ba/F3-Δ19del/T790M/C797S (P00533 with tags, fused parts or gaps DEL746-750/T790M/C797S, form open): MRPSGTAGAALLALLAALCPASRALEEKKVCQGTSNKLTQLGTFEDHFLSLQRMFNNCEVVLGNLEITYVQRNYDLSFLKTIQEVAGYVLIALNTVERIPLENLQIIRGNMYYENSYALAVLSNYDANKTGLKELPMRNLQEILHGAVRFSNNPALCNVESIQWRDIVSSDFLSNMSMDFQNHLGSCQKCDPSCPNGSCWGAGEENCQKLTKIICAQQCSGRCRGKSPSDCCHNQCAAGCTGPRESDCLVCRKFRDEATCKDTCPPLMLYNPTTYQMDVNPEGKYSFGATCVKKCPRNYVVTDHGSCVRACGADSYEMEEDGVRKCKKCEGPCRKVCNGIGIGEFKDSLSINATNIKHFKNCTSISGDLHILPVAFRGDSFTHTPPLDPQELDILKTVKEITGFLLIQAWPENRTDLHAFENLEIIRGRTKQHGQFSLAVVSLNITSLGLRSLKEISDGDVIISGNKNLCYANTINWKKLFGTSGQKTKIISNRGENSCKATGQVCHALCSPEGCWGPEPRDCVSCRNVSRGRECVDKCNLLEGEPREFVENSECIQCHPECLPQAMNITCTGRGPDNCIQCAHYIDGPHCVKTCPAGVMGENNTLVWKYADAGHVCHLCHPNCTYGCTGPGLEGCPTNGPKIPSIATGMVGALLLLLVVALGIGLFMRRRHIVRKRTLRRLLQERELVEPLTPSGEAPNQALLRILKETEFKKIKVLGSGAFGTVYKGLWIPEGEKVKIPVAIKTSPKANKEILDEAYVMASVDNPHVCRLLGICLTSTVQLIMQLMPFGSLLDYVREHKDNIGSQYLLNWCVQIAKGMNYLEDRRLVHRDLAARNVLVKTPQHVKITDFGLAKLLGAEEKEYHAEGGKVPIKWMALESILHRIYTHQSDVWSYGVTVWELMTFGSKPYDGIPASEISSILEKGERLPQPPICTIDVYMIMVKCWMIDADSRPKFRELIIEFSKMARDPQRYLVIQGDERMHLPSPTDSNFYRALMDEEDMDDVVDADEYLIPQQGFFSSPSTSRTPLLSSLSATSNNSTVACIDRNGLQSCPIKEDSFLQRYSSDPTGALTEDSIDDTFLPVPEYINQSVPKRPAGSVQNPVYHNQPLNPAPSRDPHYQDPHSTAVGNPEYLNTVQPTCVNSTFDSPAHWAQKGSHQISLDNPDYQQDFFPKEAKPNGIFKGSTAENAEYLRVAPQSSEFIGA
Sequence of EGFR Δ19del/T790M/C797S (P00533 with tags, fused parts or gaps DEL746-750/T790M/C797S, form open): as above

As for `COc1cc(N2CCC3(CC2)CN(C)C3)c(-c2cnn(C)c2)cc1Nc1ncc(Cl)c(Nc2ccc(C)c(C)c2P(C)(C)=O)n1` [Compound 7], the IC50 in test [1] (class symbols) lay within 1 to 100 nM. Moreover, the GI50 in test [2] and in test [3] was 50 to 100 nM each time.

In the case of `COc1cc(N2CCOCC2)c(-c2cnn(C)c2)cc1Nc1ncc(Br)c(Nc2ccc3nccnc3c2P(C)(C)=O)n1` [Compound 16], in test [1] (class symbols), the half-inhibitory concentration (IC50) was at most 1 nM. Also, the GI50 in test [2] and in test [3] was at most 50 nM each time.

As for `COc1cc(N2CCC(N3CCN(C)CC3)CC2)c(-c2cnn(C)c2)cc1Nc1ncc(Br)c(Nc2ccc(C3CC3)c(C)c2P(C)(C)=O)n1` [Compound 12], in test [1] (class symbols), the IC50 was at most 1 nM. Further, the GI50 in test [2] and in test [3] was at most 50 nM each time.

Consider `COc1cc(N2CCC(N3CCCCC3)CC2)c(-c2cnn(C)c2)cc1Nc1ncc(Br)c(Nc2ccc3nccnc3c2P(C)(C)=O)n1` [Compound 11, (6-((2-((4-([1,4′-Bipiperidine]-1′-yl)-2-methoxy-5-(1-methyl-1H-pyrazole-4-yl)phenyl)amino)-5-bromopyrimidin-4-yl)amino)quinoxalin-5-yl)dimethylphosphine oxide], for which the IC50 in test [1] (class symbols) is at most 1 nM. Further, the GI50 in test [2] and in test [3] was at most 50 nM in each case.

Consider `COc1cc(N2CCC(N3CCCCC3)CC2)c(-c2cnn(C)c2)cc1Nc1ncc(Br)c(Nc2ccc(C)c(C)c2P(C)(C)=O)n1` [Compound 15, (6-((2-((4-([1,4′-Bipiperidine]-1′-yl)-2-methoxy-5-(1-methyl-1H-pyrazole-4-yl)phenyl)amino)-5-bromopyrimidine-4-yl)amino)-2,3-dimethylphenyl)dimethylphosphine oxide], for which the IC50 in test [1] (class symbols) is at most 1 nM. Besides, the GI50 in test [2] and in test [3] was at most 50 nM throughout.

For the molecule `CCn1cc(-c2cc(Nc3nccc(Nc4ccc(C)c(C)c4P(C)(C)=O)n3)c(OC)cc2N2CCOCC2)cn1` [Compound 23, (6-(2-(5-((1-Ethyl-1hydro-pyrazol-4-yl)-2-methoxy-4-morpholinophenyl)amino)pyrimidine-4-amino)-2,3dimethylphenyl) dimethylphosphine oxide], the IC50 in test [1] (numeric values) came out at 1.4 nM.

Consider `COc1cc(N2CCC(N3CCN(C)CC3)CC2)c(-c2cnn(C)c2)cc1Nc1ncc(Br)c(Nc2ccc3nccnc3c2P(C)(C)=O)n1` [Compound 10], for which the IC50 in test [1] (class symbols) is at most 1 nM. For the same molecule, the GI50 in test [2] and in test [3] was at most 50 nM in each case.

Regarding `CCn1cc(-c2cc(Nc3ncc(Br)c(Nc4ccc5nc(C6CC6)ccc5c4P(C)(C)=O)n3)c(OC)cc2N2CCOCC2)cn1` [Compound 24], the IC50 in test [1] (numeric values) was 17 nM.

Consider `COc1cc(N2CCC(N3CCCC3)CC2)c(-c2cnn(C)c2)cc1Nc1ncc(Cl)c(Nc2ccc(C)c(C)c2P(C)(C)=O)n1` [Compound 6], for which the IC50 in test [1] (class symbols) was at most 1 nM. Also, the GI50 in test [2] and in test [3] was at most 50 nM throughout.

`COc1cc(N2CCC(N3CCN(C)CC3)CC2)c(-c2cnn(C)c2)cc1Nc1ncc(Br)c(Nc2ccc(C)c(C)c2P(C)(C)=O)n1` [Compound 14, (6-((5-Bromo-2-((2-methoxy-5-(1-methyl-1h-pyrazol-4-yl)-4-(4-(4-methylpiperazine-1-yl)piperidine-1-yl)phenyl)amino)pyrimidine-4-yl)amino)-2,3-dimethylphenyl)dimethylphosphine oxide]: in test [1] (class symbols), the half-inhibitory concentration (IC50) is at most 1 nM. In addition, the GI50 in test [2] and in test [3] was at most 50 nM in each case.

`COc1cc(N2CCN3CCCC[C@@H]3C2)c(-c2cnn(C)c2)cc1Nc1ncc(Cl)c(Nc2ccc(C)c(C)c2P(C)(C)=O)n1` [Compound 8, (R)-(6-((5-chloro-2-((2-methoxy-5-(1-methyl-1H-pyrazol-4-yl)-4-(octahydro-2hydro-Pyridine[1,2-a]pyrazine-2-yl)phenyl)amino)pyrimidine-4-yl)amino)-2,3-dimethylphenyl)dimethylphosphine oxide]: the IC50 in test [1] (class symbols) was at most 1 nM. Besides, the GI50 in test [2] and in test [3] was at most 50 nM throughout.

By IC50 is commonly meant the concentration needed to halve the response being measured.
